Data from patent US20090253709A1 (NATIONAL DEFENSE MEDICAL CENTER, priority 2008, published 2009).

Experiments:
Assay in all cases: In vitro cytotoxicity, Development Therapeutics Program
Type in all cases: cell-based
786-0 = settings: 786-0, renal cancer; 1.0×10^−5 M
Excerpt: (§1) From the in vitro experiments of the Development Therapeutics Program of the Cancer Research Institute, the United States, it was known that the synthetic heterocyclic anthraquinone derivatives of the present invention have different inhibition levels to the different cancer cell lines under the concentration of 1.0×10^−5 M. Please refer to Table 2, which is the result of in vitro cytotoxicity of 2,7-disubstituted anthraquinone derivatives of the present invention.

A498 = settings: A498, renal cancer; 1.0×10^−5 M
Excerpt: as §1

ACHN = settings: renal cancer, 1.0×10^−5 M
Excerpt: as §1

BT-549 = settings: BT-549, breast cancer; 1.0×10^−5 M
Excerpt: as §1

COLO 205 = settings: COLO 205, colon cancer; 1.0×10^−5 M
Excerpt: as §1

DU-145 = settings: DU-145, prostate cancer; 1.0×10^−5 M
Excerpt: as §1

HCC-2998 = settings: HCC-2998, colon cancer; 1.0×10^−5 M
Excerpt: as §1

HCT-15 = settings: HCT-15, colon cancer; 1.0×10^−5 M
Excerpt: as §1

HL-60(TB) = settings: leukemia, 1.0×10^−5 M
Excerpt: as §1

HOP-62 = settings: HOP-62, non-small cell lung cancer; 1.0×10^−5 M
Excerpt: as §1

HOP-92 = settings: HOP-92, non-small cell lung cancer; 1.0×10^−5 M
Excerpt: as §1

KM12 = settings: KM12, colon cancer; 1.0×10^−5 M
Excerpt: as §1

LOX IMVI = settings: melanoma, 1.0×10^−5 M
Excerpt: as §1

MALME-3M = settings: melanoma, 1.0×10^−5 M
Excerpt: as §1

MCF7 = settings: MCF7, breast cancer; 1.0×10^−5 M
Excerpt: as §1

MDA-MB-231/ATCC = settings: breast cancer, 1.0×10^−5 M
Excerpt: as §1

MDA-MB-435 = settings: MDA-MB-435, breast cancer; 1.0×10^−5 M
Excerpt: as §1

MOLT-4 = settings: MOLT-4, leukemia; 1.0×10^−5 M
Excerpt: as §1

NCI-H23 = settings: NCI-H23, non-small cell lung cancer; 1.0×10^−5 M
Excerpt: as §1

NCI/ADR-RES = settings: breast cancer, 1.0×10^−5 M
Excerpt: as §1

NCl-H226 = settings: NCl-H226, non-small cell lung cancer; 1.0×10^−5 M
Excerpt: as §1

NCl-H322M = settings: non-small cell lung cancer, 1.0×10^−5 M
Excerpt: as §1

NCl-H460 = settings: NCl-H460, non-small cell lung cancer; 1.0×10^−5 M
Excerpt: as §1

OVCAR-5 = settings: OVCAR-5, ovarian cancer; 1.0×10^−5 M
Excerpt: as §1

OVCAR-8 = settings: OVCAR-8, ovarian cancer; 1.0×10^−5 M
Excerpt: as §1

PC-3 = settings: PC-3, prostate cancer; 1.0×10^−5 M
Excerpt: as §1

SF-268 = settings: SF-268, CNS cancer; 1.0×10^−5 M
Excerpt: as §1

SF-539 = settings: SF-539, CNS cancer; 1.0×10^−5 M
Excerpt: as §1

SK-MEL-28 = settings: SK-MEL-28, melanoma; 1.0×10^−5 M
Excerpt: as §1

SK-MEL-2 = settings: SK-MEL-2, melanoma; 1.0×10^−5 M
Excerpt: as §1

SK-MEL-5 = settings: SK-MEL-5, melanoma; 1.0×10^−5 M
Excerpt: as §1

SNB-19 = settings: SNB-19, CNS cancer; 1.0×10^−5 M
Excerpt: as §1

SNB-75 = settings: SNB-75, CNS cancer; 1.0×10^−5 M
Excerpt: as §1

SR = settings: leukemia, 1.0×10^−5 M
Excerpt: as §1

T-47D = settings: breast cancer, 1.0×10^−5 M
Excerpt: as §1

UACC-257 = settings: UACC-257, melanoma; 1.0×10^−5 M
Excerpt: as §1

UACC-62 = settings: UACC-62, melanoma; 1.0×10^−5 M
Excerpt: as §1

UO-31 = settings: UO-31, renal cancer; 1.0×10^−5 M
Excerpt: as §1

Row | Structure (SMILES) | Cellular growth rate (%) (786-0) | Cellular growth rate (%) (A498) | Cellular growth rate (%) (ACHN) | Cellular growth rate (%) (BT-549) | Cellular growth rate (%) (COLO 205) | Cellular growth rate (%) (DU-145) | Cellular growth rate (%) (HCC-2998) | Cellular growth rate (%) (HCT-15) | Cellular growth rate (%) (HL-60(TB)) | Cellular growth rate (%) (HOP-62) | Cellular growth rate (%) (HOP-92) | Cellular growth rate (%) (KM12) | Cellular growth rate (%) (LOX IMVI) | Cellular growth rate (%) (MALME-3M) | Cellular growth rate (%) (MCF7) | Cellular growth rate (%) (MDA-MB-231/ATCC) | Cellular growth rate (%) (MDA-MB-435) | Cellular growth rate (%) (MOLT-4) | Cellular growth rate (%) (NCI-H23) | Cellular growth rate (%) (NCI/ADR-RES) | also measured
1 | O=C1c2ccc(NC(=O)C3CC3)cc2C(=O)c2cc(NC(=O)C3CC3)ccc21 [Compound 32, 2,7-Bis(cyclopropanecarbonamido)anthraquinone] | 94.92 | 92.35 | 86.70 | 92.51 | 91.92 | 98.83 | 132.37 | 86.35 | 62.45 | 91.64 | 86.18 | 92.67 | 90.27 | 91.76 | 77.38 | 97.05 | 97.35 | 94.29 | 95.85 | 90.83 | Cellular growth rate (%) (NCl-H226): 100.60%; Cellular growth rate (%) (NCl-H322M): 105.77%; Cellular growth rate (%) (NCl-H460): 89.03%; Cellular growth rate (%) (OVCAR-5): 112.01%; Cellular growth rate (%) (OVCAR-8): 94.34%; Cellular growth rate (%) (PC-3): 106.89%; Cellular growth rate (%) (SF-268): 95.09%; Cellular growth rate (%) (SF-539): 93.24%; Cellular growth rate (%) (SK-MEL-28): 108.51%; Cellular growth rate (%) (SK-MEL-2): 16.85%; Cellular growth rate (%) (SK-MEL-5): 75.67%; Cellular growth rate (%) (SNB-19): 98.79%; Cellular growth rate (%) (SNB-75): 89.23%; Cellular growth rate (%) (SR): 1.69%; Cellular growth rate (%) (T-47D): 79.75%; Cellular growth rate (%) (UACC-257): 107.63%; Cellular growth rate (%) (UACC-62): 81.00%; Cellular growth rate (%) (UO-31): 95.55%
2 | O=C(CCN1CCCC1)Nc1ccc2c(c1)C(=O)c1cc(NC(=O)CCN3CCCC3)ccc1C2=O [Compound 18, 2,7-Bis[3-(pyrrolidino)propionamido]anthraquinone] | 40.51 | −0.91 | 29.65 | 76.91 | −29.04 | 29.53 | 19.99 | 56.14 | 85.84 | 18.79 | 7.04 | 32.55 | 30.74 | 47.00 | 13.35 | 30.47 | 68.84 | 22.97 | 31.49 | 80.59 | Cellular growth rate (%) (NCl-H226): 41.10%; Cellular growth rate (%) (NCl-H322M): 45.79%; Cellular growth rate (%) (NCl-H460): 25.52%; Cellular growth rate (%) (OVCAR-5): 18.81%; Cellular growth rate (%) (OVCAR-8): 19.58%; Cellular growth rate (%) (PC-3): 21.66%; Cellular growth rate (%) (SF-268): 26.67%; Cellular growth rate (%) (SF-539): 33.75%; Cellular growth rate (%) (SK-MEL-28): 14.99%; Cellular growth rate (%) (SK-MEL-2): −45.21%; Cellular growth rate (%) (SK-MEL-5): 56.94%; Cellular growth rate (%) (SNB-19): 66.97%; Cellular growth rate (%) (SNB-75): 77.47%; Cellular growth rate (%) (SR): 19.75%; Cellular growth rate (%) (T-47D): 58.98%; Cellular growth rate (%) (UACC-257): −17.88%; Cellular growth rate (%) (UACC-62): 42.72%; Cellular growth rate (%) (UO-31): 5.27%
